Source: patent publication US4206235A, “Novel 2,5-dihalophenyl-β-substituted sulfone fungicides” (priority 1976, dated 1980)
Converted amounts (≈) assume the structure as drawn.

What was measured:
[1] = tested on: Fusarium oxysporum sp. f.lycopersici; test: Fungitoxicity in culture media (agar), growth inhibition; format: cell-based; settings: 50% inhibition of growth, read-out: ED50 (the source's name)
Description: (§1) Acetone solutions of the compound were mixed with an aliquot of distilled water and the fine suspension obtained was mixed with cooled but melted agar medium and poured into Petri dishes.
(§2) The tested fungi were grown on the solidified media. Growth of the fungus was measured and percent inhibition was calculated by comparing with the appropriate acetone-water controls. Media were usually Martin's or potato-dextrose agar media.
(§3) ED50 = effective dose, sufficient for the 50% inhibition of growth of the fungus, expressed in p.p.m.

[2] = tested on: Pythium aphanidermatum; test: as above; format: cell-based; settings: 50% inhibition of growth, read-out: ED50 (the source's name)
Description: as §1, §2, §3

[3] = tested on: Rhizoctonia bataticola; test: as above; format: cell-based; settings: Macrophomina phaseolina, 50% inhibition of growth, read-out: ED50 (the source's name)
Description: as §1, §2, §3

[4] = tested on: Rhizoctonia solani; test: as above; format: cell-based; settings: 50% inhibition of growth, read-out: ED50 (the source's name)
Description: as §1, §2, §3

[5] = tested on: Rhizopus stolonifer; test: as above; format: cell-based; settings: 50% inhibition of growth, read-out: ED50 (the source's name)
Description: as §1, §2, §3

[6] = tested on: Sclerotinia rolfsil; test: as above; format: cell-based; settings: 50% inhibition of growth, read-out: ED50 (the source's name)
Description: as §1, §2, §3

[7] = tested on: Venturia inaequalis; test: Control of apple scab in greenhouse test, apple seedlings; format: in vivo; settings: Barrat & Horsfall Scale, 1 = 0%, 12 = 100% leaf scabbed, 15 days after inoculation
[8] = tested on: Venturia inaequalis; test: Comparative performance of 2 compounds and 2 commercial fungicides, spray treated plants in greenhouse; format: in vivo
[9] = tested on: Penicillium funiculosum; test: Halo test on plasticized PVC sheeting; format: cell-based; set-up: key to growth under the test sample (GUS): +: no reduction in growth; ±: slight reduction in growth; .-+.: moderate reduction in growth; -: complete reduction in growth
[10] = tested on: Trichoderma viride; test: Halo test on plasticized PVC sheeting; format: cell-based; set-up: key to growth under the test sample (GUS): +: no reduction in growth; ±: slight reduction in growth; .-+.: moderate reduction in growth; -: complete reduction in growth
[11] = tested on: Aspergillus flavus; test: Halo test on plasticized PVC sheeting; format: cell-based; set-up: key to growth under the test sample (GUS): +: no reduction in growth; ±: slight reduction in growth; .-+.: moderate reduction in growth; -: complete reduction in growth
[12] = tested on: Aspergillus niger; test: Halo test on plasticized PVC sheeting; format: cell-based; set-up: key to growth under the test sample (GUS): +: no reduction in growth; ±: slight reduction in growth; .-+.: moderate reduction in growth; -: complete reduction in growth
[13] = tested on: Cladosporium cladosporoides; test: Halo test on plasticized PVC sheeting; format: cell-based; set-up: key to growth under the test sample (GUS): +: no reduction in growth; ±: slight reduction in growth; .-+.: moderate reduction in growth; -: complete reduction in growth
[14] = tested on: Paecilomyces varioti; test: Halo test on plasticized PVC sheeting; format: cell-based; set-up: key to growth under the test sample (GUS): +: no reduction in growth; ±: slight reduction in growth; .-+.: moderate reduction in growth; -: complete reduction in growth
[15] = tested on: Alternaria tenuis; test: Halo test on plasticized PVC sheeting; format: cell-based; set-up: key to growth under the test sample (GUS): +: no reduction in growth; ±: slight reduction in growth; .-+.: moderate reduction in growth; -: complete reduction in growth; settings: for Zone of growth inhibition (halo): brackets = growth partially suppressed
[16] = tested on: mixed spore suspension of Aspergillus flavus, Aspergillus niger, Paecilomyces varioti, Penicillium funiculosum, Trichoderma viride, Alternaria tenuis …; test: Weight Loss Test of PVC sheeting
[17] = Test No.1, inoculum 2.5 ×10^5 /ml, 50 p.p.m.
[18] = Test No.1, inoculum 2.5 ×10^5 /ml, 100 p.p.m.
[19] = Test No.1, inoculum 2.5 ×10^5 /ml, 500 p.p.m.
[20] = Test No.2, inoculum 5.0 ×10^5 /ml, 50 p.p.m.
[21] = Test No.2, inoculum 5.0 ×10^5 /ml, 100 p.p.m.
[22] = Test No.2, inoculum 5.0 ×10^5 /ml, 500 p.p.m.
[23] = 0.5% in PVC sheeting, brackets = growth partially suppressed

O=S(=O)(CC(Cl)Cl)c1cc(Cl)ccc1Cl [Example 1, 2,5-dichlorophenyl-β,β'-dichloroethyl sulfone]
IC50 [1]: 50 µg/mL (≈ 162 µM) | IC50 [2]: 10 µg/mL (≈ 32.5 µM) | IC50 [3]: 5 µg/mL (≈ 16.2 µM) | IC50 [4]: 5 µg/mL (≈ 16.2 µM) | IC50 [5]: 50 µg/mL (≈ 162 µM) | IC50 [6]: 10 µg/mL (≈ 32.5 µM) | Mean disease severity ([7]; 50 p.p.m.): 3.5 | Mean disease severity ([7]; 100 p.p.m.): 3.0 | Mean disease severity ([7]; 500 p.p.m.): 1.0 | Disease control [8, 17]: 63.6% | Disease control [8, 18]: 97.4% | Disease control [8, 19]: 100% | Disease control [8, 20]: 98.2% | Disease control [8, 21]: 99.5% | Disease control [8, 22]: 100% | growth under the test sample (GUS) ([9]; 0.5% in PVC sheeting): + | Zone of growth inhibition (halo) ([9]; 1% in PVC sheeting): 2.5 millimetres | growth under the test sample (GUS) ([9]; 1% in PVC sheeting): .-+. | Zone of growth inhibition (halo) ([10]; 0.5% in PVC sheeting): 0 millimetres | growth under the test sample (GUS) ([10]; 0.5% in PVC sheeting): + | Zone of growth inhibition (halo) ([10]; 1% in PVC sheeting): 0 millimetres | growth under the test sample (GUS) ([10]; 1% in PVC sheeting): + | Zone of growth inhibition (halo) ([11]; 0.5% in PVC sheeting): 0 millimetres | growth under the test sample (GUS) ([11]; 0.5% in PVC sheeting): .-+. | Zone of growth inhibition (halo) ([11]; 1% in PVC sheeting): 0 millimetres | growth under the test sample (GUS) ([11]; 1% in PVC sheeting): .-+. | growth under the test sample (GUS) ([12]; 0.5% in PVC sheeting): .-+. | Zone of growth inhibition (halo) ([12]; 1% in PVC sheeting): 6 millimetres | growth under the test sample (GUS) ([12]; 1% in PVC sheeting): - | growth under the test sample (GUS) ([13]; 0.5% in PVC sheeting): - | Zone of growth inhibition (halo) [13, 23]: 5 millimetres | Zone of growth inhibition (halo) ([13]; 1% in PVC sheeting): 12 millimetres | growth under the test sample (GUS) ([13]; 1% in PVC sheeting): - | Zone of growth inhibition (halo) ([14]; 0.5% in PVC sheeting): 0 millimetres | growth under the test sample (GUS) ([14]; 0.5% in PVC sheeting): + | Zone of growth inhibition (halo) ([14]; 1% in PVC sheeting): 15 millimetres | growth under the test sample (GUS) ([14]; 1% in PVC sheeting): - | growth under the test sample (GUS) ([15]; 0.5% in PVC sheeting): - | Zone of growth inhibition (halo) ([15]; 0.5% in PVC sheeting): 11 millimetres | growth under the test sample (GUS) ([15]; 1% in PVC sheeting): - | Zone of growth inhibition (halo) ([15]; 1% in PVC sheeting): 17 millimetres

O=S(=O)(CC(Cl)(Cl)Cl)c1cc(Cl)ccc1Cl [Example 2, 2,5-dichlorophenyl,β,β',β"-trichloroethyl sulfone]
IC50 [1]: 50 µg/mL (≈ 146 µM) | IC50 [2]: 5 µg/mL (≈ 14.6 µM) | IC50 [3]: 10 µg/mL (≈ 29.2 µM) | IC50 [4]: 10 µg/mL (≈ 29.2 µM) | IC50 [6]: 10 µg/mL (≈ 29.2 µM) | Mean disease severity ([7]; 50 p.p.m.): 5.0 | Mean disease severity ([7]; 100 p.p.m.): 2.9 | Mean disease severity ([7]; 500 p.p.m.): 1.3 | growth under the test sample (GUS) ([9]; 0.5% in PVC sheeting): + | Zone of growth inhibition (halo) [9, 23]: 0 millimetres | Zone of growth inhibition (halo) ([9]; 1% in PVC sheeting): 0 millimetres | growth under the test sample (GUS) ([9]; 1% in PVC sheeting): + | Zone of growth inhibition (halo) ([10]; 0.5% in PVC sheeting): 0 millimetres | growth under the test sample (GUS) ([10]; 0.5% in PVC sheeting): + | Zone of growth inhibition (halo) ([10]; 1% in PVC sheeting): 0 millimetres | growth under the test sample (GUS) ([10]; 1% in PVC sheeting): + | Zone of growth inhibition (halo) ([11]; 0.5% in PVC sheeting): 0 millimetres | growth under the test sample (GUS) ([11]; 0.5% in PVC sheeting): + | Zone of growth inhibition (halo) ([11]; 1% in PVC sheeting): 0 millimetres | growth under the test sample (GUS) ([11]; 1% in PVC sheeting): + | growth under the test sample (GUS) ([12]; 0.5% in PVC sheeting): + | Zone of growth inhibition (halo) [12, 23]: 0 millimetres | Zone of growth inhibition (halo) ([12]; 1% in PVC sheeting): 0 millimetres | growth under the test sample (GUS) ([12]; 1% in PVC sheeting): + | growth under the test sample (GUS) ([13]; 0.5% in PVC sheeting): .-+. | Zone of growth inhibition (halo) ([13]; 1% in PVC sheeting): 8 millimetres | growth under the test sample (GUS) ([13]; 1% in PVC sheeting): - | Zone of growth inhibition (halo) ([14]; 0.5% in PVC sheeting): 0 millimetres | growth under the test sample (GUS) ([14]; 0.5% in PVC sheeting): + | Zone of growth inhibition (halo) ([14]; 1% in PVC sheeting): 0 millimetres | growth under the test sample (GUS) ([14]; 1% in PVC sheeting): + | growth under the test sample (GUS) ([15]; 0.5% in PVC sheeting): .-+. | growth under the test sample (GUS) ([15]; 1% in PVC sheeting): -

O=S(=O)(CC(Cl)c1ccccc1)c1cc(Cl)ccc1Cl (stereo not drawn) [Example 5, 2,5-dichlorophenyl-β-chloro-β-phenylethyl sulfone]
IC50 [1]: > 50 µg/mL | IC50 [3]: 50 µg/mL (≈ 143 µM) | IC50 [4]: 20 µg/mL (≈ 57.2 µM) | Mean disease severity ([7]; 50 p.p.m.): 6.0 | Mean disease severity ([7]; 100 p.p.m.): 2.3 | Mean disease severity ([7]; 500 p.p.m.): 3.5

O=S(=O)(CC(Cl)Br)c1cc(Cl)ccc1Cl (stereo not drawn) [Example 6, 2,5-dichlorophenyl-β-chloro-β-bromoethyl sulfone]
IC50 [1]: > 50 µg/mL | IC50 [3]: 20 µg/mL (≈ 56.7 µM) | IC50 [4]: 10 µg/mL (≈ 28.4 µM) | Mean disease severity ([7]; 50 p.p.m.): 4.0 | Mean disease severity ([7]; 100 p.p.m.): 1.0 | Mean disease severity ([7]; 500 p.p.m.): 1.0

O=S(=O)(CC(Cl)Cl)c1cc(Br)ccc1Br [Example 7, 2,5-dibromophenyl-β,β'-dichloroethyl sulfone]
IC50 [1]: 50 µg/mL (≈ 126 µM) | IC50 [3]: 20 µg/mL (≈ 50.4 µM) | IC50 [4]: 5 µg/mL (≈ 12.6 µM) | IC50 [5]: 50 µg/mL (≈ 126 µM) | Mean disease severity ([7]; 50 p.p.m.): 5.7 | Mean disease severity ([7]; 100 p.p.m.): 5.3 | Mean disease severity ([7]; 500 p.p.m.): 5.0

O=S(=O)(CC(Cl)(Cl)Cl)c1cc(Br)ccc1Br [Example 8, 2,5-dibromophenyl-β,β',β"-trichloroethyl sulfone]
Mean disease severity ([7]; 50 p.p.m.): 6.0 | Mean disease severity ([7]; 100 p.p.m.): 2.0 | Mean disease severity ([7]; 500 p.p.m.): 1.3 | Disease control [8, 17]: 86.4% | Disease control [8, 18]: 97.4% | Disease control [8, 19]: 100% | Disease control [8, 20]: 99.9% | Disease control [8, 21]: 100% | Disease control [8, 22]: 99.9%

[Cl][Hg][Cl] [mercuric chloride, reference compound]
changes in weight (in words) [16]: only negligible changes in weight
